A short description of series [1]: Ratio of drug concentration at steady state in human at 20 to 40 mg/kg, po QD after 24 hrs to IC50 for human MRP4 overexpressed in Sf9 insect cells. It is filed as ADME, organism-based. The conditions noted are these: in vivo.
For the next series, the target named is Bile salt export pump (Homo sapiens, UniProt O95342). The series is described as follows: Inhibition of human BSEP overexpressed in Sf9 cell membrane vesicles assessed as uptake of [3H]-taurocholate in presence of ATP measured after 15 to 20 mins by membrane vesicle transport assay. The class given is ADME, cell-based.
The nature of series [2]: AUC in human at 20 to 40 mg/kg, po QD after 24 hrs. The class given is ADME, organism-based. The conditions noted are these: in vivo.
Series [3] in a line: Drug concentration at steady state in human at 20 to 40 mg/kg, po QD after 24 hrs. It is filed as ADME, organism-based. The conditions noted are these: in vivo, read-out: Css.
For series [4], the target named is T1, ATP-binding cassette sub-family C member 4 (Homo sapiens, UniProt O15439).
T1 sequence (O15439 whole entry): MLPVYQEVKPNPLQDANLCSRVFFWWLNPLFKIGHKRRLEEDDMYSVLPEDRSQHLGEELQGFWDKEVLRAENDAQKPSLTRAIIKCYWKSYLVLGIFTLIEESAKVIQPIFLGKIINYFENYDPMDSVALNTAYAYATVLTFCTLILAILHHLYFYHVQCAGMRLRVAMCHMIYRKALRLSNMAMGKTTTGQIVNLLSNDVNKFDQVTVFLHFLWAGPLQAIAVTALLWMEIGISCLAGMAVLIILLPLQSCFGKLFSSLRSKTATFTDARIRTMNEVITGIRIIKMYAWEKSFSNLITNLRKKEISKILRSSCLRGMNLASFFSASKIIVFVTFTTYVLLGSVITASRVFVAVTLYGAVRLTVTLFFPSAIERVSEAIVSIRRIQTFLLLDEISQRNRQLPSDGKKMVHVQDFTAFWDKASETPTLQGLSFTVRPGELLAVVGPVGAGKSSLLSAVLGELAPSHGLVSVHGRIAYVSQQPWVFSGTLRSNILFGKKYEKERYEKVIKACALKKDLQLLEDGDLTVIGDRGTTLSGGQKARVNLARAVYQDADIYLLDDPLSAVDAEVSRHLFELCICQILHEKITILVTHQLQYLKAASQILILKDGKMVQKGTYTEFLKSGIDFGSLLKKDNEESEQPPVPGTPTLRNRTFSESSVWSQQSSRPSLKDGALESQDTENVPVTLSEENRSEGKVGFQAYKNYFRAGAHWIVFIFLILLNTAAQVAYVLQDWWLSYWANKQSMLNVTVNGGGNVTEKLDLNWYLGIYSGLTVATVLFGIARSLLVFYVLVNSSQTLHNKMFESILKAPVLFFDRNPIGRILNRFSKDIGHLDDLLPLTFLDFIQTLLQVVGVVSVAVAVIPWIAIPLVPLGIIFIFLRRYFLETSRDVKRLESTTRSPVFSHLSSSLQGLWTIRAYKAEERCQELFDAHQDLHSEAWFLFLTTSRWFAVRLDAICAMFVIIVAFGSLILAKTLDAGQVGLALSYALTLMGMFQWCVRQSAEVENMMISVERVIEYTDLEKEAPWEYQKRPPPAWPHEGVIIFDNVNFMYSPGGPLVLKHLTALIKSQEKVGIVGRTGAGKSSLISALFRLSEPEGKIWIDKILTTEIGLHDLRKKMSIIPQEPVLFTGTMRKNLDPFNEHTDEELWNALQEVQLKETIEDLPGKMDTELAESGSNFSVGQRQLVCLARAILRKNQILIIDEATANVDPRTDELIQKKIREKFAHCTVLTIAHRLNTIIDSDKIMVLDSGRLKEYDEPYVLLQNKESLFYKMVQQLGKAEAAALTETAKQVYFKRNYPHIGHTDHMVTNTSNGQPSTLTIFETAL
Put plainly: Inhibition of human MRP4 overexpressed in Sf9 cell membrane vesicles assessed as uptake of [3H]-estradiol-17beta-D-glucuronide in presence of ATP and GSH measured after 20 mins by membrane vesicle transport assay. It is filed as ADME, cell-based.

In series [5] the target is ATP-binding cassette sub-family C member 2 (Homo sapiens, UniProt Q92887). Put plainly: Inhibition of human MRP2 overexpressed in Sf9 cell membrane vesicles assessed as uptake of [3H]-estradiol-17beta-D-glucuronide in presence of ATP and GSH measured after 20 mins by membrane vesicle transport assay.
Series [6] deals with ATP-binding cassette sub-family C member 3 (Homo sapiens, UniProt O15438). The series is described as follows: Inhibition of human MRP3 overexpressed in Sf9 insect cell membrane vesicles assessed as uptake of [3H]-estradiol-17beta-D-glucuronide in presence of ATP and GSH measured after 10 mins by membrane vesicle transport assay. It is filed as ADME, cell-based.
Series [7] in a line: Ratio of drug concentration at steady state in human at 20 to 40 mg/kg, po QD after 24 hrs to IC50 for human BSEP overexpressed in Sf9 insect cells. The class given is ADME, organism-based. The conditions noted are these: in vivo.
A short description of series [8]: Drug concentration at steady state in human at 43 to 130 mg, po QD after 24 hrs. The class given is ADME, organism-based. The conditions noted are these: in vivo, read-out: Css.
Another series is described as follows: clinical. As to conditions: human, in vivo, po.
The nature of series [9]: Ratio of drug concentration at steady state in human at 600 mg administered twice weekly followed by 600 mg administered once in a week measured after 84 hrs to IC50 for human MRP4 overexpressed in Sf9 insect cells. It is filed as ADME. The conditions noted are these: in vivo.
Series [10] in a line: Ratio of drug concentration at steady state in human at 600 mg administered twice weekly followed by 600 mg administered once in a week measured after 84 hrs to IC50 for human MRP2 overexpressed in Sf9 insect cells. It is filed as ADME. The conditions noted are these: in vivo.
A short description of series [11]: Ratio of drug concentration at steady state in human at 600 mg administered twice weekly followed by 600 mg administered once in a week measured after 84 hrs to IC50 for human MRP3 overexpressed in Sf9 insect cells. It is filed as ADME. The conditions noted are these: in vivo.
Series [12] in a line: Ratio of drug concentration at steady state in human at 600 mg administered twice weekly followed by 600 mg administered once in a week measured after 84 hrs to IC50 for human BSEP overexpressed in Sf9 insect cells. The class given is ADME. The conditions noted are these: in vivo.
A short description of series [13]: AUC in human at 600 mg administered twice weekly followed by 600 mg administered once in a week measured after 84 hrs. It is filed as ADME. Set-up: dose 600 mg, time < 84 hr. As to conditions: in vivo.
The nature of series [14]: Drug concentration at steady state in human at 600 mg administered twice weekly followed by 600 mg administered once in a week measured after 84 hrs. As to conditions: in vivo, read-out: Css. It is filed as ADME.
For another series, the system named is Homo sapiens. The series is described as follows: Drug concentration at steady state in human at 135 to 175 mg/m2, iv administered as infusion for 3 or 24 hrs measured after 1 hr. It is filed as ADME, organism-based. The conditions noted are these: in vivo.
Series [15] is described as follows: AUC in human at 135 to 175 mg/m2, iv administered as infusion for 3 or 24 hrs measured after 1 hr. As to conditions: in vivo. The class given is ADME, organism-based. Set-up: time < 1 hr, route intravenous.
The nature of series [16]: Drug concentration at steady state in human at 50 ug, sc BID/TID co-treated with 50 to 500 ug, sc TID of sandostatin LAR measured after 8 hrs. It is filed as ADME, organism-based. The conditions noted are these: in vivo, read-out: Css.
Series [17] is described as follows: AUC in human at 50 ug, sc BID/TID co-treated with 50 to 500 ug, sc TID of sandostatin LAR measured after 8 hrs. The class given is ADME, organism-based. Further details: dose 50 ug, time < 8 hr, route subcutaneous. The conditions noted are these: in vivo.
The nature of series [18]: Ratio of drug concentration at steady state in human at 50 ug, sc BID/TID co-treated with 50 to 500 ug, sc TID of sandostatin LAR measured after 8 hrs to IC50 for human BSEP overexpressed in Sf9 insect cells. The conditions noted are these: in vivo. It is filed as ADME, organism-based.

Each structure is given as a SMILES string. pIC50: −log10 of the molar value.

Chain of ATP-binding cassette sub-family C member 3 (O15438 whole entry): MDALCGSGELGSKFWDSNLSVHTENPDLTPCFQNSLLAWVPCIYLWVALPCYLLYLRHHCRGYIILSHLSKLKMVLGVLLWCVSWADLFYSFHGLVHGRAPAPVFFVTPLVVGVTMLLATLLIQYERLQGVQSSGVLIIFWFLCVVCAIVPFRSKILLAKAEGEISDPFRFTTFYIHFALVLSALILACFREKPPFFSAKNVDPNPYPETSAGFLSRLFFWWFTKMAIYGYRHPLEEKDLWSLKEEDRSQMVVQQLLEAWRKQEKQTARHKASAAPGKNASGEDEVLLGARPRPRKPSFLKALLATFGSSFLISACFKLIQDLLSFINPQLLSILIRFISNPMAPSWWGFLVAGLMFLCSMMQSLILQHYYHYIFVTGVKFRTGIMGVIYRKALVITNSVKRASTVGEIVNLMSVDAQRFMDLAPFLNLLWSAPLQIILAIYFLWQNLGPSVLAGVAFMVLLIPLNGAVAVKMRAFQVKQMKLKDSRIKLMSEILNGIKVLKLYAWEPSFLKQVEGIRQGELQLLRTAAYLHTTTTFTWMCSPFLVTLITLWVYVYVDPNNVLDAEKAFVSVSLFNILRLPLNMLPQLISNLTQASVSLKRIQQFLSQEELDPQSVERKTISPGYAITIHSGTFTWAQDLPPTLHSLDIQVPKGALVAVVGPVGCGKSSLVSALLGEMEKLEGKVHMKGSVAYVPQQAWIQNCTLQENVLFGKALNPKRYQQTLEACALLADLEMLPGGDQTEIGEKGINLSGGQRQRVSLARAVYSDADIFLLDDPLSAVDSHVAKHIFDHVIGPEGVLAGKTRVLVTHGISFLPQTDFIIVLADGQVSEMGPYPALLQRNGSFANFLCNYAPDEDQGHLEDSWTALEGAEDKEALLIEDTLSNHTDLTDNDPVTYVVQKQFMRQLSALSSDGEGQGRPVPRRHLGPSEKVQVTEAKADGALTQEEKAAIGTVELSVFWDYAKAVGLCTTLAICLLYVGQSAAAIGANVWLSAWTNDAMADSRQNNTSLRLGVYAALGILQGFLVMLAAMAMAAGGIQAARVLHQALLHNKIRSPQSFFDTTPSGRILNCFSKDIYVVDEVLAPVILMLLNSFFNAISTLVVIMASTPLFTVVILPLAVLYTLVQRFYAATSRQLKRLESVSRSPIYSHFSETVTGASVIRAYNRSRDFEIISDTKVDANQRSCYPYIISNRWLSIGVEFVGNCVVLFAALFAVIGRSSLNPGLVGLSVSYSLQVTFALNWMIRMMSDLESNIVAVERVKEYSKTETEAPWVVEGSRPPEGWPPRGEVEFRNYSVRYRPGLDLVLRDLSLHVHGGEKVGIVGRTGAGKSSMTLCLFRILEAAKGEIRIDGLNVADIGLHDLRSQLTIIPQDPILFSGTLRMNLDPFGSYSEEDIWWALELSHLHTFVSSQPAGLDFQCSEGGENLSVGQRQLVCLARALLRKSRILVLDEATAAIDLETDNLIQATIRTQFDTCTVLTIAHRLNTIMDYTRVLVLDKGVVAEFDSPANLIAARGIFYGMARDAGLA
Chain of Bile salt export pump (O95342 whole entry): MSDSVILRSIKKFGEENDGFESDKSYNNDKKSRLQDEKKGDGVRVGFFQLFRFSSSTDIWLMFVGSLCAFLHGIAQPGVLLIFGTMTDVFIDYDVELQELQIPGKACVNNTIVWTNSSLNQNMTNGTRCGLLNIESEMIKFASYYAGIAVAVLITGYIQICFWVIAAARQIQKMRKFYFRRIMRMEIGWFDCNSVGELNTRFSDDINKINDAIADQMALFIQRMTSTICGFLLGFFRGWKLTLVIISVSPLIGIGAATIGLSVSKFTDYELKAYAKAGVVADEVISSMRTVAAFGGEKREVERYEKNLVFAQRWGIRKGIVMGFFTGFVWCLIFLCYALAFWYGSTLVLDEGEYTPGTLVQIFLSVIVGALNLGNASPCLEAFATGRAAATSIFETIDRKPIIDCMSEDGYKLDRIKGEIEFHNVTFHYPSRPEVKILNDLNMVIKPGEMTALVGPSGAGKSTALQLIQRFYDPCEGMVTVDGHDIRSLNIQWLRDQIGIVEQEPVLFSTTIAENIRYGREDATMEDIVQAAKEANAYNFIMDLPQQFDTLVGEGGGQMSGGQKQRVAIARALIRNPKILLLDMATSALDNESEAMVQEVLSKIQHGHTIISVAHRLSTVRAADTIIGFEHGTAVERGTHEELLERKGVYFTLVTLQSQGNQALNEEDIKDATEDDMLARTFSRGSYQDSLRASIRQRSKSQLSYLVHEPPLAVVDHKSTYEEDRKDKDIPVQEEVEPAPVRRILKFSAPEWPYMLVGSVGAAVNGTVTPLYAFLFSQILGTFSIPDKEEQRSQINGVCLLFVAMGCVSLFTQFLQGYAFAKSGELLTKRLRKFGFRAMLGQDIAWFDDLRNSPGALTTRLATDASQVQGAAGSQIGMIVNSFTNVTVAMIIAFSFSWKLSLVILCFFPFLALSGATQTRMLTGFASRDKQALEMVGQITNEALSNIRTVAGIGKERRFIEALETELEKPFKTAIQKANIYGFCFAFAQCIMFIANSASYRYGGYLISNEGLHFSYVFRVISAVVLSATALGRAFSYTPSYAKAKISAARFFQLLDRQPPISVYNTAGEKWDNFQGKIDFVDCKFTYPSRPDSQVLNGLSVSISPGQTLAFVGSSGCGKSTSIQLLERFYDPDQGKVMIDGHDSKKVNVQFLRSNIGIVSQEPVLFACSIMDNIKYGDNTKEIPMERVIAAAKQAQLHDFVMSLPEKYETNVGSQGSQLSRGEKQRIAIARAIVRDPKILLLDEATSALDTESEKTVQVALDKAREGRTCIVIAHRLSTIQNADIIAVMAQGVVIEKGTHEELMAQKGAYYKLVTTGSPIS
Chain of ATP-binding cassette sub-family C member 2 (Q92887 whole entry): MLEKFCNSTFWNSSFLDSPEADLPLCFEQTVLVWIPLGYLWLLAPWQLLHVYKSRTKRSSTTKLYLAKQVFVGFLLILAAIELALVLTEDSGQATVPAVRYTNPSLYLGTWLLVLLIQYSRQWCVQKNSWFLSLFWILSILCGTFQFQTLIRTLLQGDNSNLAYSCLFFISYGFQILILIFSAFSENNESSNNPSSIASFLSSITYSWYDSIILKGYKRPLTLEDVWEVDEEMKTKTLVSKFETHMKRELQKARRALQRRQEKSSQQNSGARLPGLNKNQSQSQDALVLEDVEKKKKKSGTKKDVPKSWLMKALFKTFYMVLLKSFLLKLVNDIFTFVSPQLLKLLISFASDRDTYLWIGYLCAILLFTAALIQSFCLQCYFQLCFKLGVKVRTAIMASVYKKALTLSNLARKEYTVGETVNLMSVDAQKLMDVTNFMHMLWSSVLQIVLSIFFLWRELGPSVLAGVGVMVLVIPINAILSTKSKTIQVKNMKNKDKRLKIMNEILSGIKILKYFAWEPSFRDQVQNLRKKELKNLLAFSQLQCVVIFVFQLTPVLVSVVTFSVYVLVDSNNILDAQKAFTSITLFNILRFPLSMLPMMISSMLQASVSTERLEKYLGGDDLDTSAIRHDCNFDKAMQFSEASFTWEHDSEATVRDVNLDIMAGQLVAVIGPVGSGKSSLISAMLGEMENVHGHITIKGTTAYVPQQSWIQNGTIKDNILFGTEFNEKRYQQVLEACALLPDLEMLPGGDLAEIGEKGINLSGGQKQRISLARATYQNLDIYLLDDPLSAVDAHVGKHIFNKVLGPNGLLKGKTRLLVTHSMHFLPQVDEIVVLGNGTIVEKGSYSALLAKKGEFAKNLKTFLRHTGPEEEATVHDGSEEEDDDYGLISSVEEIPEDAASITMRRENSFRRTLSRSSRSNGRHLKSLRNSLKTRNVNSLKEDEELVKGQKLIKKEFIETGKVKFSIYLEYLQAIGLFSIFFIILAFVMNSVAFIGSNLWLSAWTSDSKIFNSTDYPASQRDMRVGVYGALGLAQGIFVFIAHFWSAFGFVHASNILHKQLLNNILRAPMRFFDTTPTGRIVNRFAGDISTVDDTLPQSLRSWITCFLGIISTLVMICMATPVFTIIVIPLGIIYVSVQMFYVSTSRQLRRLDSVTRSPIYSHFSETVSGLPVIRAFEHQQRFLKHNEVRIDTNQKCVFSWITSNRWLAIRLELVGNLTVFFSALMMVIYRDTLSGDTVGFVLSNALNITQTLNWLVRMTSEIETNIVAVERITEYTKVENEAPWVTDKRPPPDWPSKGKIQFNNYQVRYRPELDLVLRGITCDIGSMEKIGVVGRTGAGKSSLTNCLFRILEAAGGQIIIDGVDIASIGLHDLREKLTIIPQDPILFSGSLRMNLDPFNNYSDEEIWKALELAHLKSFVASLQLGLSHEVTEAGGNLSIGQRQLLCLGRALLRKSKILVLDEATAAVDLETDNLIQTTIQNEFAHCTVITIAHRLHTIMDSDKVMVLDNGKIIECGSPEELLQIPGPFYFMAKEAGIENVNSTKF

The term pIC50 denotes the IC50 on a negative log10 scale, so that one unit is a factor of ten. The term AUC denotes the area under the concentration-time curve, a measure of exposure. With `O=C(O)c1ccc(-n2nc(-c3ccccc3O)nc2-c2ccccc2O)cc1` [DEFERASIROX], the results for the Ratio in series [1] and in series [7] were 3.781 and 2.363, respectively. Moreover, the pIC50 was 4.23 on Bile salt export pump, 4.44 in [4], under 3.88 in series [5] and under 3.88 in series [6]. In series [2], this molecule yielded an AUC at 24 h of 3310 µM·h. Moreover, in series [3], the concentration at 24 h amounted to 138 µM.

For `CC(C)OC(=O)C(C)(C)Oc1ccc(C(=O)c2ccc(Cl)cc2)cc1` [FENOFIBRATE], the pIC50 in series [4], in series [5] and in [6] was under 3.88 throughout. Besides, the concentration at 24 h in series [8] amounted to 14.9 µM. The molecule further had an AUC at 24 h in the series “clinical” of 357 µM·h.

On to `CO[C@H]1/C=C/O[C@@]2(C)Oc3c(C)c(O)c4c(O)c(c(/C=N/N5CCN(C6CCCC6)CC5)c(O)c4c3C2=O)NC(=O)/C(C)=C\C=C\[C@H](C)[C@H](O)[C@@H](C)[C@@H](O)[C@@H](C)[C@H](OC(C)=O)[C@@H]1C` [RIFAPENTINE], for which the pIC50 on Bile salt export pump was 5.00; in series [4], 4.44; in [5], 4.79; in series [6], 4.09. Besides, the Ratio in series [9] amounted to 0.131; in [10], 0.288; in [11], 0.058; in [12] it was 0.474. Also, in series [13], the AUC at 84 h worked out at 395 µM·h. In addition, the concentration at 84 h in series [14] was 4.7 µM.

With `CC(=O)O[C@H]1C(=O)[C@@]2(C)[C@H]([C@H](OC(=O)c3ccccc3)[C@]3(O)C[C@H](OC(=O)[C@H](O)[C@@H](NC(=O)c4ccccc4)c4ccccc4)C(C)=C1C3(C)C)[C@]1(OC(C)=O)CO[C@@H]1C[C@@H]2O` [PACLITAXEL], the negative logarithm of the IC50 (pIC50) in series [4], in series [5] and in [6] was under 3.88 each time. The molecule further displayed a Css in the series on Homo sapiens of 14.759 µM. In addition, in series [15], the AUC at 1 h was 14.8 µM·h.

With `CC(=O)O.C[C@@H](O)[C@@H]1NC(=O)[C@H](CCCCN)NC(=O)[C@@H](Cc2c[nH]c3ccccc23)NC(=O)[C@H](Cc2ccccc2)NC(=O)[C@@H](NC(=O)[C@H](N)Cc2ccccc2)CSSC[C@@H](C(=O)N[C@H](CO)[C@@H](C)O)NC1=O` [OCTREOTIDE ACETATE], the pIC50 is 5.03 at Bile salt export pump, under 3.88 in series [4], under 3.88 in series [5] and under 3.88 in [6]. The concentration at 8 h in [16] was determined as 5.28 µM. The AUC at 8 h in series [17] was determined as 42.2 µM·h. Besides, the Ratio in series [18] came to 0.565.

The record behind these values is ChEMBL document CHEMBL4028801, “A multifactorial approach to hepatobiliary transporter assessment enables improved therapeutic compound development” (Toxicol Sci, 2013).
